Data from patent publication US9555039B2, “Piperidine derivatives and compositions for the inhibition of nicotinamide phosphoribosyltransferase (NAMPT)” (Forma TM, LLC., priority 2011, dated 2017).
Read-outs that look alike come from different tables or passages of the source.

How the values were obtained:
[1] = molecular target: T1, Recombinant His-tagged NAMPT (Homo sapiens, UniProt P43490); assay: Biochemical inhibition assay: NAMPT enzymatic reaction, NMN quantified by mass spectrometry; settings: 33 nM NAMPT, 1 μM NAM, 100 μM PRPP, 30 minutes at room temperature, read-out: Biochem IC50
T1 construct: His; host or cells: E. coli
T1 sequence (P43490 whole entry): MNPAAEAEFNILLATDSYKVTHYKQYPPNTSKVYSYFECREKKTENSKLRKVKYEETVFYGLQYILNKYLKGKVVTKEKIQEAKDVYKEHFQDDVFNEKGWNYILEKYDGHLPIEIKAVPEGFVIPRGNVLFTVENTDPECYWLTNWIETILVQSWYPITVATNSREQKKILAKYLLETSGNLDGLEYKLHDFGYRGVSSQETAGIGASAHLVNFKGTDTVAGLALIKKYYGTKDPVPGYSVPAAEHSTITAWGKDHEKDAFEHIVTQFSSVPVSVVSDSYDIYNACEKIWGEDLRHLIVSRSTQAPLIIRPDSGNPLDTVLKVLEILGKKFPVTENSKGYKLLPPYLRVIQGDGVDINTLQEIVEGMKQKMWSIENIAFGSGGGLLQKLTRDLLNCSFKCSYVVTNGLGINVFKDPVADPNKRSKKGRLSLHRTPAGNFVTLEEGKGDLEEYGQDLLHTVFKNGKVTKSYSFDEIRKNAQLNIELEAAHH
Method in brief: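 Reaction 30 min at room temperature with 1 μM NAM, 100 μM PRPP, 2.5 mM ATP (final), quenched with formic acid. NMN quantified by RapidFire electrospray MS, normalized to L-cystathionine; IC50 from percent inhibition versus DMSO.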

A2780 cells = assay: In-vitro cell proliferation assay (SRB, 72 hours); assay type: cell-based; settings: sulforhodamine B (SRB) assay
Method in brief: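 Viable cells measured by TCA fixation and SRB staining, absorbance 570 nm; % inhibition vs DMSO control after media-only background subtraction, interpolated between two bracketing concentrations.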

O=C(NCCCCC1CCN(C(=O)c2cc3cc(F)ccc3[nH]2)CC1)c1cc2ccncc2s1 [N-(4-{1-[(5-fluoro-1H-indol-2-yl)carbonyl]piperidin-4-yl}butyl)thieno[2,3-c]pyridine-2-carboxamide]
IC50 ([1]; 2.5 mM ATP): 30.4 nM | IC50 (A2780 cells; Homo sapiens): 1000 to 10000 nM

O=C(NCCCCC1CCN(C(=O)c2cc3cnccc3[nH]2)CC1)c1ccc2nccn2c1 [N-{4-[1-({1H-pyrrolo[3,2-c]pyridin-2-yl}carbonyl)piperidin-4-yl]butyl}imidazo[1,2-a]pyridine-6-carboxamide]
IC50 ([1]; 2.5 mM ATP): 8.6 nM | IC50 (A2780 cells; Homo sapiens): 13.1 nM

Cc1ncsc1C(=O)N1CCC(CCCCNC(=O)c2cc3cnccc3[nH]2)CC1 [N-(4-{1-[(4-methyl-1,3-thiazol-5-yl)carbonyl]piperidin-4-yl}butyl)-1H-pyrrolo[3,2-c]pyridine-2-carboxamide]
IC50 ([1]; […] ATP): 5.4 nM | IC50 (A2780 cells; Homo sapiens): 1 nM

Cc1cnc(C(=O)N2CCC(CCCCNC(=O)c3ccc4nccn4c3)CC2)cn1 [N-(4-{1-[(5-methylpyrazin-2-yl)carbonyl]piperidin-4-yl}butyl)imidazo[1,2-a]pyridine-6-carboxamide]
IC50 ([1]; 2.5 mM ATP): 10.9 nM | IC50 (A2780 cells; Homo sapiens): 66.7 nM

O=C(NCCCCC1CCN(C(=O)c2ccc(F)cc2F)CC1)c1cc2ccncc2s1 [N-(4-{1-[(2,4-difluorophenyl)carbonyl]piperidin-4-yl}butyl)thieno[2,3-c]pyridine-2-carboxamide]
IC50 ([1]; 2.5 mM ATP): 12.8 nM | IC50 (A2780 cells; Homo sapiens): 13.5 nM

COc1cccc(C(=O)N2CCC(CCCCNC(=O)c3ccc4nccn4c3)CC2)c1OC [N-(4-{1-[(2,3-dimethoxyphenyl)carbonyl]piperidin-4-yl}butyl)imidazo[1,2-a]pyridine-6-carboxamide]
IC50 ([1]; 2.5 mM ATP): 19.1 nM | IC50 (A2780 cells; Homo sapiens): 2.9 nM

O=C(NCCCCC1CCN(C(=O)c2ccc(F)cc2F)CC1)c1cc2cnccc2[nH]1 [N-(4-{1-[(2,4-difluorophenyl)carbonyl]piperidin-4-yl}butyl)-1H-pyrrolo[3,2-c]pyridine-2-carboxamide]
IC50 ([1]; 2.5 mM ATP): 39.3 nM | IC50 (A2780 cells; Homo sapiens): 8.1 nM

Cc1ccc(C(=O)N2CCC(CCCCNC(=O)c3cc4ccncc4s3)CC2)cn1 [N-(4-{1-[(6-methylpyridin-3-yl)carbonyl]piperidin-4-yl}butyl)thieno[2,3-c]pyridine-2-carboxamide]
IC50 ([1]; 2.5 mM ATP): 69.7 nM | IC50 (A2780 cells; Homo sapiens): 100 to 1000 nM

COc1ccc(C(=O)N2CCC(CCCCNC(=O)c3cc4ccncc4s3)CC2)cc1F [N-(4-{1-[(3-fluoro-4-methoxyphenyl)carbonyl]piperidin-4-yl}butyl)thieno[2,3-c]pyridine-2-carboxamide]
IC50 ([1]; 2.5 mM ATP): 71.4 nM | IC50 (A2780 cells; Homo sapiens): 100 to 1000 nM

Cc1ccc(C(=O)N2CCC(CCCCNC(=O)c3cc4ccncc4s3)CC2)cc1F [N-(4-{1-[(3-fluoro-4-methylphenyl)carbonyl]piperidin-4-yl}butyl)thieno[2,3-c]pyridine-2-carboxamide]
IC50 ([1]; 2.5 mM ATP): 41.7 nM | IC50 (A2780 cells; Homo sapiens): 100 to 1000 nM

CCOc1cccc(C(=O)N2CCC(CCCCNC(=O)c3cc4ccncc4s3)CC2)c1 [N-(4-{1-[(3-ethoxyphenyl)carbonyl]piperidin-4-yl}butyl)thieno[2,3-c]pyridine-2-carboxamide]
IC50 ([1]; 2.5 mM ATP): 39.1 nM | IC50 (A2780 cells; Homo sapiens): 76.5 nM

CC(C)c1ncoc1C(=O)N1CCC(CCCCNC(=O)c2cc3cnccc3[nH]2)CC1 [N-[4-(1-{[4-(propan-2-yl)-1,3-oxazol-5-yl]carbonyl}piperidin-4-yl)butyl]-1H-pyrrolo[3,2-c]pyridine-2-carboxamide]
IC50 ([1]; 2.5 mM ATP): 30.4 nM | IC50 (A2780 cells; Homo sapiens): 5.3 nM

O=C(NCCCCC1CCN(C(=O)c2ccc(OC(F)F)cc2)CC1)c1cc2ccncc2s1 [N-[4-(1-{[4-(difluoromethoxy)phenyl]carbonyl}piperidin-4-yl)butyl]thieno[2,3-c]pyridine-2-carboxamide]
IC50 ([1]; 2.5 mM ATP): 77.4 nM | IC50 (A2780 cells; Homo sapiens): 100 to 1000 nM

O=C(NCCCC1CCN(C(=O)c2ccccc2)CC1)c1cc2cnccc2[nH]1 [N-(3-(1-benzoylpiperidin-4-yl)propyl)-1H-pyrrolo[3,2-c]pyridine-2-carboxamide]
IC50 ([1]; 2.5 mM ATP): 126 nM | IC50 (A2780 cells; Homo sapiens): 432 nM

Cc1ncsc1C(=O)N1CCC(CCCCNC(=O)c2ccc3nccn3c2)CC1 [N-(4-{1-[(4-methyl-1,3-thiazol-5-yl)carbonyl]piperidin-4-yl}butyl)imidazo[1,2-a]pyridine-6-carboxamide]
IC50 ([1]; 2.5 mM ATP): 2.9 nM | IC50 (A2780 cells; Homo sapiens): 0.8 nM

O=C(NCCCCC1CCN(C(=O)c2ccc(OC(F)F)cc2)CC1)c1cc2cnccc2[nH]1 [N-[4-(1-{[4-(difluoromethoxy)phenyl]carbonyl}piperidin-4-yl)butyl]-1H-pyrrolo[3,2-c]pyridine-2-carboxamide]
IC50 ([1]; 2.5 mM ATP): 183 nM | IC50 (A2780 cells; Homo sapiens): 31.4 nM

O=C(NCCCCC1CCN(C(=O)c2csc(-c3ccccc3)n2)CC1)c1cc2ccncc2s1 [N-(4-{1-[(2-phenyl-1,3-thiazol-4-yl)carbonyl]piperidin-4-yl}butyl)thieno[2,3-c]pyridine-2-carboxamide]
IC50 ([1]; 2.5 mM ATP): 13.1 nM | IC50 (A2780 cells; Homo sapiens): 76.2 nM

O=C(NCCCCC1CCN(C(=O)c2cc3ccccc3[nH]2)CC1)c1ccc2nccn2c1 [N-(4-{1-[(1H-indol-2-yl)carbonyl]piperidin-4-yl}butyl)imidazo[1,2-a]pyridine-6-carboxamide]
IC50 ([1]; 2.5 mM ATP): 61.6 nM | IC50 (A2780 cells; Homo sapiens): 100 to 1000 nM

O=C(NCCCCC1CCN(C(=O)c2ccc(F)cn2)CC1)c1ccc2nccn2c1 [N-(4-{1-[(5-fluoropyridin-2-yl)carbonyl]piperidin-4-yl}butyl)imidazo[1,2-a]pyridine-6-carboxamide]
IC50 ([1]; 2.5 mM ATP): 74 nM | IC50 (A2780 cells; Homo sapiens): 67.9 nM

COc1cccc(C(=O)N2CCC(CCCCNC(=O)c3cc4cnccc4[nH]3)CC2)c1OC [N-(4-{1-[(2,3-dimethoxyphenyl)carbonyl]piperidin-4-yl}butyl)-1H-pyrrolo[3,2-c]pyridine-2-carboxamide]
IC50 ([1]; 2.5 mM ATP): 20.8 nM | IC50 (A2780 cells; Homo sapiens): 1.9 nM

O=C(NCCCCC1CCN(C(=O)c2ccc(N3CCOCC3)nc2)CC1)c1ccc2nccn2c1 [N-[4-(1-{[6-(morpholin-4-yl)pyridin-3-yl]carbonyl}piperidin-4-yl)butyl]imidazo[1,2-a]pyridine-6-carboxamide]
IC50 ([1]; 2.5 mM ATP): 12.9 nM | IC50 (A2780 cells; Homo sapiens): 5.9 nM

COc1cc(OC)cc(C(=O)N2CCC(CCCCNC(=O)c3cc4ccncc4s3)CC2)c1 [N-(4-{1-[(3,5-dimethoxyphenyl)carbonyl]piperidin-4-yl}butyl)thieno[2,3-c]pyridine-2-carboxamide]
IC50 ([1]; 2.5 mM ATP): 57.1 nM | IC50 (A2780 cells; Homo sapiens): 20.2 nM

O=C(NCCCCC1CCN(C(=O)c2ccc(F)cn2)CC1)c1cc2cnccc2[nH]1 [N-(4-{1-[(5-fluoropyridin-2-yl)carbonyl]piperidin-4-yl}butyl)-1H-pyrrolo[3,2-c]pyridine-2-carboxamide]
IC50 ([1]; 2.5 mM ATP): 57.2 nM | IC50 (A2780 cells; Homo sapiens): 14 nM

O=C(NCCCCC1CCN(S(=O)(=O)c2ccc(OC(F)(F)F)cc2)CC1)c1cc2cnccc2[nH]1 [N-[4-(1-{[4-(trifluoromethoxy)benzene]sulfonyl}piperidin-4-yl)butyl]-1H-pyrrolo[3,2-c]pyridine-2-carboxamide]
IC50 ([1]; […] ATP): 76 nM | IC50 (A2780 cells): 27.2 nM

O=C(NCCCCC1CCN(C(=O)c2ccc3[nH]ccc3c2)CC1)c1cc2cnccc2[nH]1 [N-(4-{1-[(1H-indol-5-yl)carbonyl]piperidin-4-yl}butyl)-1H-pyrrolo[3,2-c]pyridine-2-carboxamide]
IC50 ([1]; 2.5 mM ATP): 39.4 nM | IC50 (A2780 cells; Homo sapiens): 13.5 nM

COc1cccc(C(=O)N2CCC(CCCCNC(=O)c3cc4ccncc4s3)CC2)c1OC [N-(4-{1-[(2,3-dimethoxyphenyl)carbonyl]piperidin-4-yl}butyl)thieno[2,3-c]pyridine-2-carboxamide]
IC50 ([1]; 2.5 mM ATP): 16.9 nM | IC50 (A2780 cells; Homo sapiens): 5.6 nM

O=C(NCCCCC1CCN(S(=O)(=O)c2ccc(F)cc2)CC1)c1cc2cnccc2[nH]1 [N-(4-{1-[(4-fluorobenzene)sulfonyl]piperidin-4-yl}butyl)-1H-pyrrolo[3,2-c]pyridine-2-carboxamide]
IC50 ([1]; 2.5 mM ATP): 48.9 nM | IC50 (A2780 cells; Homo sapiens): 17.6 nM

COc1cc(OC)cc(C(=O)N2CCC(CCCCNC(=O)c3cc4cnccc4[nH]3)CC2)c1 [N-(4-{1-[(3,5-dimethoxyphenyl)carbonyl]piperidin-4-yl}butyl)-1H-pyrrolo[3,2-c]pyridine-2-carboxamide]
IC50 ([1]; 2.5 mM ATP): 74.1 nM | IC50 (A2780 cells; Homo sapiens): 2.6 nM

O=C(NCCCCC1CCN(C(=O)c2ccc(Cl)cc2)CC1)c1ccc2nccn2c1 [N-(4-{1-[(4-chlorophenyl)carbonyl]piperidin-4-yl}butyl)imidazo[1,2-a]pyridine-6-carboxamide]
IC50 ([1]; 2.5 mM ATP): 84.6 nM | IC50 (A2780 cells; Homo sapiens): 100 to 1000 nM

Cc1ccc(C(=O)N2CCC(CCCCNC(=O)c3cc4cnccc4[nH]3)CC2)cn1 [N-(4-{1-[(6-methylpyridin-3-yl)carbonyl]piperidin-4-yl}butyl)-1H-pyrrolo[3,2-c]pyridine-2-carboxamide]
IC50 ([1]; 2.5 mM ATP): 65.1 nM | IC50 (A2780 cells; Homo sapiens): 21.3 nM

O=C(NCCCCC1CCN(C(=O)c2csc(-c3ccccc3)n2)CC1)c1cc2cnccc2[nH]1 [N-(4-{1-[(2-phenyl-1,3-thiazol-4-yl)carbonyl]piperidin-4-yl}butyl)-1H-pyrrolo[3,2-c]pyridine-2-carboxamide]
IC50 ([1]; 2.5 mM ATP): 110 nM | IC50 (A2780 cells; Homo sapiens): 72.5 nM

O=C(NCCCCC1CCN(C(=O)c2ccccc2OC(F)(F)F)CC1)c1ccc2nccn2c1 [N-[4-(1-{[2-(trifluoromethoxy)phenyl]carbonyl}piperidin-4-yl)butyl]imidazo[1,2-a]pyridine-6-carboxamide]
IC50 ([1]; 2.5 mM ATP): 2.5 nM | IC50 (A2780 cells; Homo sapiens): 1.9 nM

O=C(NCCCCC1CCN(C(=O)c2ccc3ncsc3c2)CC1)c1cc2ccncc2s1 [N-(4-{1-[(1,3-benzothiazol-6-yl)carbonyl]piperidin-4-yl}butyl)thieno[2,3-c]pyridine-2-carboxamide]
IC50 ([1]; 2.5 mM ATP): 32.3 nM | IC50 (A2780 cells; Homo sapiens): 35.4 nM

O=C(NCCC1CCN(C(=O)c2ccccc2)CC1)c1cc2cnccc2[nH]1 [N-[2-(1-benzoylpiperidin-4-yl)ethyl]-1H-pyrrolo[3,2-c]pyridine-2-carboxamide]
IC50 ([1]; 2.5 mM ATP): 10000 nM | IC50 (A2780 cells; Homo sapiens): 20000 nM
